ChEMBL document CHEMBL6182926, “Design, Synthesis, and Biological Activity Evaluation of Deuterated Diphenyl Azole Alcohol-Based CYP51 Inhibitors” (J Med Chem, 2025)
≈ marks a conversion by molar mass, not a printed value.

Key:
[1] = (§1) Selectivity ratio, ratio of IC50 for cytotoxicity against human SH-SY5Y cells to MIC80 for antifungal activity against Candida albicans SC 5314; type: toxicity, cell-based
Candida albicans [2] = assay: Antifungal activity against Candida albicans SC5314 assessed as reduction in ergosterol at 0.05 ug/ml measured after 18 hrs incubation by gas chromatography-mass spectrometry (GCMS) analysis (reference value: 96.72%); type: functional; set-up: scale not given: the % may be the effect or the level left; conditions: dose 0.05 µg/ml
Cryptococcus neoformans [3] = assay: Fungicidal index, ratio of MFC for fungicidal activity against Cryptococcus neoformans CGMCC 2.3161 to MIC80 for antifungal activity against Cryptococcus neoformans CGMCC 2.3161; type: functional
Candida albicans [4] = assay: Antifungal activity against Candida albicans SC 5314 assessed as inhibition of visible growth; type: functional
[5] = as §1; type: toxicity, cell-based; remark: listed apart in the source
Cytochrome P450 2C19 = Cytochrome P450 2C19 (Homo sapiens, UniProt P33261); assay: Inhibition of CYP2C19 in human liver microsomes using S-mephenytoin as substrate measured after 10 mins by LC/MS/MS analysis; type: ADME, Microsome
[6] = Oral bioavailability in Sprague-Dawley rat at 10 mg/kg by LC-MS/MS analysis; type: ADME, organism-based; conditions: in vivo
[7] = Subacute toxicity in ICR mouse assessed as mortality at 100 mg/kg, oral gavage for 14 consecutive days; type: organism-based; conditions: in vivo, 336 h, time 14 day
Cryptococcus neoformans [8] = assay: Antifungal activity against Cryptococcus neoformans CGMCC 2.3161 assessed as reduction in Lanosterol at 0.125 ug/ml measured after 18 hrs incubation by gas chromatography-mass spectrometry (GCMS) analysis; type: functional; set-up: scale not given: the % may be the effect or the level left; conditions: dose 0.125 µg/ml
[9] = Tmax in Sprague-Dawley rat at 3 mg/kg, iv by LC-MS/MS analysis; type: ADME, organism-based; conditions: in vivo
Candida albicans [10] = assay: Antifungal activity against Candida albicans SC5314 assessed as reduction in 14alpha-methylsterols at 0.05 ug/ml measured after 18 hrs incubation by gas chromatography-mass spectrometry (GCMS) analysis (reference value: 0.69%); type: functional; set-up: scale not given: the % may be the effect or the level left; conditions: dose 0.05 µg/ml
Nakaseomyces glabratus [11] = assay: Antifungal activity against Clinical isolate Candida glabrata assessed as inhibition of visible growth; type: functional
[12] = Selectivity ratio, ratio of IC50 for cytotoxicity against human SH-SY5Y cells to MIC80 for antifungal activity against Candida parapsilosis GIM 2.190; type: toxicity, cell-based
Aspergillus fumigatus = assay: Antifungal activity against Aspergillus fumigatus CGMCC 3.7795 assessed as inhibition of visible growth; type: functional
Cryptococcus neoformans [13] = assay: Antifungal activity against Cryptococcus neoformans CGMCC 2.3161 assessed as reduction in ergosterol at 0.0125 ug/ml measured after 18 hrs incubation by gas chromatography-mass spectrometry (GCMS) analysis (reference value: 94.48%); type: functional; set-up: scale not given: the % may be the effect or the level left; conditions: dose 0.0125 µg/ml
Candida albicans [14] = assay: Antifungal activity against Candida albicans SC5314 assessed as reduction in Eburicol at 0.05 ug/ml measured after 18 hrs incubation by gas chromatography-mass spectrometry (GCMS) analysis; type: functional; set-up: scale not given: the % may be the effect or the level left; conditions: dose 0.05 µg/ml
Candida albicans [15] = assay: Antifungal activity against Candida albicans SC5314 assessed as reduction in Obtusifoliol at 0.05 ug/ml measured after 18 hrs incubation by gas chromatography-mass spectrometry (GCMS) analysis; type: functional; set-up: scale not given: the % may be the effect or the level left; conditions: dose 0.05 µg/ml
[16] = Half life in Sprague-Dawley rat at 10 mg/kg, po by LC-MS/MS analysis; type: ADME, organism-based; conditions: in vivo
Cryptococcus neoformans [17] = assay: Inhibition of biofilm formation in Cryptococcus neoformans CGMCC 2.3161 assessed as inhibition of metabolic activity of biofilm measured after 24 hrs by XTT assay; type: functional
Nakaseomyces glabratus [18] = assay: Inhibition of biofilm formation in clinical isolate Candida glabrata assessed as inhibition of metabolic activity of biofilm measured after 24 hrs by XTT assay; type: functional
[19] = Cmax in Sprague-Dawley rat at 10 mg/kg, po by LC-MS/MS analysis; type: ADME, organism-based; conditions: in vivo
[20] = MRT (0 to infinity) in Sprague-Dawley rat at 10 mg/kg, po by LC-MS/MS analysis; type: ADME, organism-based; conditions: in vivo
Cryptococcus neoformans [21] = assay: Antifungal activity against Cryptococcus neoformans CGMCC 2.3161 assessed as reduction in Eburicol at 0.125 ug/ml measured after 18 hrs incubation by gas chromatography-mass spectrometry (GCMS) analysis; type: functional; set-up: scale not given: the % may be the effect or the level left; conditions: dose 0.125 µg/ml
Cryptococcus neoformans [22] = assay: Antifungal activity against Cryptococcus neoformans CGMCC 2.3161 assessed as reduction in Lanosterol at 0.0125 ug/ml measured after 18 hrs incubation by gas chromatography-mass spectrometry (GCMS) analysis; type: functional; set-up: scale not given: the % may be the effect or the level left; conditions: dose 0.0125 µg/ml
Cryptococcus neoformans [23] = assay: Antifungal activity against Cryptococcus neoformans CGMCC 2.3161 assessed as reduction in Obtusifoliol at 0.0125 ug/ml measured after 18 hrs incubation by gas chromatography-mass spectrometry (GCMS) analysis; type: functional; set-up: scale not given: the % may be the effect or the level left; conditions: dose 0.0125 µg/ml
Cryptococcus neoformans [24] = assay: Antifungal activity against Cryptococcus neoformans CGMCC 2.3161 assessed as inhibition of visible growth; type: functional
Nakaseomyces glabratus [25] = assay: Fungicidal index, ratio of MFC for fungicidal activity against Clinical isolate Candida glabrata to MIC80 for antifungal activity against Clinical isolate Candida glabrata; type: functional
Cytochrome P450 2D6 = Cytochrome P450 2D6 (Homo sapiens, UniProt P10635); assay: Inhibition of CYP2D6 in human liver microsomes using dextromethorphan as substrate measured after 10 mins by LC/MS/MS analysis; type: ADME, Microsome
Candida albicans [26] = assay: Antifungal activity against Candida albicans SC5314 assessed as reduction in other sterol at 0.05 ug/ml measured after 18 hrs incubation by gas chromatography-mass spectrometry (GCMS) analysis (reference value: 2.59%); type: functional; set-up: scale not given: the % may be the effect or the level left; conditions: dose 0.05 µg/ml
Cryptococcus neoformans [27] = assay: Antifungal activity against Cryptococcus neoformans CGMCC 2.3161 assessed as reduction in Obtusifoliol at 0.125 ug/ml measured after 18 hrs incubation by gas chromatography-mass spectrometry (GCMS) analysis; type: functional; set-up: scale not given: the % may be the effect or the level left; conditions: dose 0.125 µg/ml
Pichia kudriavzevii = assay: Antifungal activity against Candida krusei AS 2.1045 assessed as inhibition of visible growth; type: functional
Mus musculus = assay: In vivo antifungal activity against Candida albicans SC5314 infected in ICR mouse model assessed as mouse survival at 5 mg/kg, oral gavage measured for 21 days post infection; type: functional; conditions: 504 h, time 21 day
Candida parapsilosis = assay: Antifungal activity against Candida parapsilosis GIM 2.190 assessed as inhibition of visible growth; type: functional; conditions: Lodderomyces parapsilosis
[28] = Tmax in Sprague-Dawley rat at 10 mg/kg, po by LC-MS/MS analysis; type: ADME, organism-based; conditions: in vivo
Cytochrome P450 2C9 = Cytochrome P450 2C9 (Homo sapiens, UniProt P11712); assay: Inhibition of CYP2C9 in human liver microsomes using diclofenac as substrate measured after 10 mins by LC/MS/MS analysis; type: ADME, Microsome
[29] = Subacute toxicity in ICR mouse assessed as structural alteration in kidney at 100 mg/kg, oral gavage for 14 consecutive days by hematoxylin-eosin (H/E) staining analysis; type: organism-based; conditions: in vivo, 336 h, time 14 day
[30] = Cytotoxicity against human SH-SY5Y cells measured after 72 hrs by MTT assay; type: toxicity, cell-based
Cryptococcus neoformans [31] = assay: Antifungal activity against Cryptococcus neoformans CGMCC 2.3161 assessed as reduction in Eburicol at 0.0125 ug/ml measured after 18 hrs incubation by gas chromatography-mass spectrometry (GCMS) analysis; type: functional; set-up: scale not given: the % may be the effect or the level left; conditions: dose 0.0125 µg/ml

Sequence of Cytochrome P450 2D6 (P10635 whole entry): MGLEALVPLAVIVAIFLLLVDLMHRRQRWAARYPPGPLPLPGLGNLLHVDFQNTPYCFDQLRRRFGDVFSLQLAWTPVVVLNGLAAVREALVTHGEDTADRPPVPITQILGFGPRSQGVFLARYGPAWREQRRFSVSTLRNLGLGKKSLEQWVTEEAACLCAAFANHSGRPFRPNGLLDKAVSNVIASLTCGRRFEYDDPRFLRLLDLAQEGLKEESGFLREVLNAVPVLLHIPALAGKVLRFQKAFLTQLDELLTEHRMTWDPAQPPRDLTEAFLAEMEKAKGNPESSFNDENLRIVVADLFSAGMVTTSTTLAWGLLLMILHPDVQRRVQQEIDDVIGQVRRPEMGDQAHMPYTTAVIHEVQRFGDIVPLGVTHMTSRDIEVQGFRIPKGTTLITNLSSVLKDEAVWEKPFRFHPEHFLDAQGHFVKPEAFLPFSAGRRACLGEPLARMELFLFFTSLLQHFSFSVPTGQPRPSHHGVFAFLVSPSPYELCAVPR
Sequence of Cytochrome P450 2C9 (P11712 whole entry): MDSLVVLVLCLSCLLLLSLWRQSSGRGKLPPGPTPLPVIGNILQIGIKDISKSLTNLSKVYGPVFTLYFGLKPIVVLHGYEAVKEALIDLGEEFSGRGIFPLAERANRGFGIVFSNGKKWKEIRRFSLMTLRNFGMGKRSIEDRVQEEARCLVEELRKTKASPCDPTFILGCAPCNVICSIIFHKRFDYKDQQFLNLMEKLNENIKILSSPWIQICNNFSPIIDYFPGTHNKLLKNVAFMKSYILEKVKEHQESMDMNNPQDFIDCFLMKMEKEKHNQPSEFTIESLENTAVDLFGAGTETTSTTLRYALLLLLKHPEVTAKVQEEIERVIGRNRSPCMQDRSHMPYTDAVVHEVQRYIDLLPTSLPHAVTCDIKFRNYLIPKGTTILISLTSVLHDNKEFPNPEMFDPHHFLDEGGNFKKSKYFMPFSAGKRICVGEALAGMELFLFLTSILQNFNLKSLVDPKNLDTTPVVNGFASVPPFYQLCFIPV
Sequence of Cytochrome P450 2C19 (P33261 whole entry): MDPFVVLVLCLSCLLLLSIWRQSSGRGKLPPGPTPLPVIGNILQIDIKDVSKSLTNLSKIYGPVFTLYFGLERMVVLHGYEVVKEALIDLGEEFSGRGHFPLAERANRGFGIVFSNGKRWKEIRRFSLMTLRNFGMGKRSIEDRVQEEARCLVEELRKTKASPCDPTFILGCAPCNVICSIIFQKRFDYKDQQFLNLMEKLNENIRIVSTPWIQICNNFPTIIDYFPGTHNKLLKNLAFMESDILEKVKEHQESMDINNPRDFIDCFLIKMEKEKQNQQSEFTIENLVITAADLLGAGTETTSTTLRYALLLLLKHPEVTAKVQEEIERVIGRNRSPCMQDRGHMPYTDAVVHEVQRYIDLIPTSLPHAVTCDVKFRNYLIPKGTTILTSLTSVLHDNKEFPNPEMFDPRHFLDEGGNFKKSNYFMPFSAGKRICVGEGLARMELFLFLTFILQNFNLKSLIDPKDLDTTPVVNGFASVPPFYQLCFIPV

## [2H]C([2H])([2H])N(Cc1ccc(-c2ccc(OC(F)(F)F)cc2)cc1)[C@H](C)[C@](O)(Cn1cncn1)c1ccc(F)cc1F
[1]
  selectivity ratio: > 100
Candida albicans [2]
  Activity: 3.68%
Cryptococcus neoformans [3]
  Activity_index: 5
Candida albicans [4]
  MIC80: 0.006 µg/mL (≈ 0.0112 µM)
[5]
  selectivity ratio: > 100
Cytochrome P450 2C19
  IC50: 1.71 µM
[6]
  bioavailability: 63.4%
[7]
  Activity: Non-toxic
Cryptococcus neoformans [8]
  Activity: 6.14%
[9]
  Tmax: 4.98 min
Candida albicans [10]
  Activity: 7.73%
Nakaseomyces glabratus [11]
  MIC80: 0.012 µg/mL (≈ 0.0224 µM)
[12]
  selectivity ratio: > 100
Aspergillus fumigatus
  MIC80: 0.025 µg/mL (≈ 0.0467 µM)
Cryptococcus neoformans [13]
  Activity: 62.56%
Candida albicans [14]
  Activity: 46.42%
Candida albicans [15]
  Activity: 18%
[16]
  half-life: 4.42 h
Cryptococcus neoformans [17]
  MIC50: 16 µg/mL (≈ 29.9 µM)
Nakaseomyces glabratus [18]
  MIC50: 0.062 µg/mL (≈ 0.116 µM)
[19]
  Cmax: 601 ng/mL
[20]
  MRT inf: 6.18 h
Cryptococcus neoformans [21]
  Activity: 47.42%
Cryptococcus neoformans [22]
  Activity: 8.58%
Cryptococcus neoformans [23]
  Activity: 5.76%
Cryptococcus neoformans [24]
  MIC80: 0.012 µg/mL (≈ 0.0224 µM)
Nakaseomyces glabratus [25]
  Activity_index: 40
Cytochrome P450 2D6
  IC50: > 10 µM
Candida albicans [26]
  Activity: 3.13%
Cryptococcus neoformans [27]
  Activity: 26.05%
Pichia kudriavzevii
  MIC80: 0.012 µg/mL (≈ 0.0224 µM)
Mus musculus
  survival at 5 mg/kg: 100%
Candida parapsilosis
  MIC80: 0.006 µg/mL (≈ 0.0112 µM)
[28]
  Tmax: 2.67 h
Cytochrome P450 2C9
  IC50: 1.76 µM
[29]
  Activity: Non-toxic
[30]
  IC50 at 72 h: 25.2 µM
Cryptococcus neoformans [31]
  Activity: 11.59%
